For one assay, the target named is T1, human H1 receptor (Homo sapiens, UniProt P35367).
T1 construct: expressed in transfected cells
In words: Histamine H1 functional antagonist assay: determination of functional pKi values (FLIPR). It counts as cell-based. The following applies: CHO cells expressing human H1 receptor, histamine at EC80, read-out: average pKi (pKb) at H1 (converted). As to the method:
The human H1 receptor is cloned using known procedures described in the literature [Biochem. Biophys. Res. Commun., 201(2):894 (1994)]. Chinese hamster ovary (CHO) cells stably expressing the human H1 receptor are generated according to known procedures described in the literature [Br. J. Pharmacol., 117(6):1071 (1996)]. The histamine H1 cell line is seeded into non-coated black-walled clear bottom 384-well tissue culture plates in alpha minimum essential medium (Gibco/Invitrogen, cat no. 22561-021), supplemented with 10′)/0 dialysed foetal calf serum (Gibco/Invitrogen cat no. 12480-021) and 2 mM L-glutamine (Gibco/Invitrogen cat no 25030-024) and is maintained overnight at 5% CO2, 37° C. Excess medium is removed from each well to leave 10 μl. 30 μl loading dye (250 μM Brilliant Black, 2 μM Fluo-4 diluted in Tyrodes buffer+probenecid (145 mM NaCl, 2.5 mM KCl, 10 mM HEPES, 10 mM D-glucose, 1.2 mM MgCl2, 1.5 mM CaCl2, 2.5 mM probenecid, pH adjusted to 7.40 with NaOH 1.0 M)) is added to each well and the plates are incubated for 60 min at 5% CO2, 37° C. 10 μl of test compound, diluted to the required concentration in Tyrodes buffer+probenecid (or 10 μl Tyrodes buffer+probenecid as a control) is added to each well and the plate is incubated for 30 min at 37° C., 5% CO2. The plates are then placed into a FLIPR™(Molecular Devices, UK) to monitor cell fluorescence (λex=488 nm, λEM=540 nm) in the manner described in Sullivan et al., (In: Lambert DG (ed.), Calcium Signaling Protocols, New Jersey: Humana Press, 1999, 125-136) before and after the addition of 10 μl histamine at a concentration that results in the final assay concentration of histamine being EC80. Functional antagonism is indicated by a suppression of histamine induced increase in fluorescence, as measured by the FLIPR™ system (Molecular Devices). By means of concentration effect curves, functional affinities are determined using standard pharmacological mathematical analysis.

The next assay deals with T2, histamine H3 receptor (Homo sapiens, UniProt Q9Y5N1).
T2 construct: expressed in transfected cells; host or cells: CHO K1 cells with pSwitch/pGeneH3 (GeneSwitch, mifepristone-induced), clone 3H3; membrane preparation
Description: Histamine H3 functional antagonist assay (GTPγS, membranes). It counts as biochemical. The following applies: CHO K1 membranes, [35S]-GTPγS, histamine at EC80; read-out: average pKi (pKb) at H3 (converted). As to the method: The histamine H3 cDNA is isolated from its holding vector, pcDNA3.1 TOPO (InVitrogen), by restriction digestion of plasmid DNA with the enzymes BamH1 and Not-1 and is ligated into the inducible expression vector pGene (InVitrogen) digested with the same enzymes. The GeneSwitchTM system (a system where in transgene expression is switched off in the absence of an inducer and switched on in the presence of an inducer) is performed as described in U.S. Pat. Nos. 5,364,791; 5,874,534; and 5,935,934. Ligated DNA is transformed into competent DH5α E. coli host bacterial cells and is plated onto Luria Broth (LB) agar containing ZeocinTM (an antibiotic which allows the selection of cells expressing the sh ble gene which is present on pGene and pSwitch) at 50 μgml^-1. Colonies containing the re-ligated plasmid are identified by restriction analysis. DNA for transfection into mammalian cells is prepared from 250 ml cultures of the host bacterium containing the […]3 plasmid and is isolated using a DNA preparation kit (Qiagen Midi-Prep) as per manufacturers guidelines (Qiagen). CHO K1 cells previously transfected with the pSwitch regulatory plasmid (InVitrogen) are seeded at 2×10^6 cells per T75 flask in Complete Medium, containing Hams F12 (GIBCOBRL, Life Technologies) medium supplemented with 10% v/v dialysed foetal bovine serum, L-glutamine, and hygromycin (100 μgml^-1), 24 h prior to use. Plasmid DNA is transfected into the cells using Lipofectamine plus according to the manufacturer's guidelines (InVitrogen). 48 h post transfection, cells are placed into complete medium supplemented with 500 μgml^-1 ZeocinTM. 10-14 days post selection, 10 nM Mifepristone (InVitrogen) is added to the culture medium to induce the expression of the receptor. 18 h post induction, cells are detached from the flask using ethylenediamine tetra-acetic acid (EDTA; 1:5000; InVitrogen), following several washes with PBS, pH 7.4 and are resuspended in Sorting Medium containing Minimum Essential Medium (MEM), without phenol red, and are supplemented with Earles salts and 3% Foetal Clone II (Hyclone). Approximately 1×10^7 cells are examined for receptor expression by staining with a rabbit polyclonal antibody, 4a, raised against the N-terminal domain of the histamine H3 receptor, are incubated on ice for 60 min, followed by two washes in sorting medium. Receptor bound antibody is detected by incubation of the cells for 60 min on ice with a goat anti rabbit antibody, conjugated with Alexa 488 fluorescence marker (Molecular Probes). Following two further washes with Sorting Medium, cells are filtered through a 50 μm FilconTM (BD Biosciences) and then are analysed on a FACS Vantage SE Flow Cytometer fitted with an Automatic Cell Deposition Unit. Control cells are non-induced cells treated in an analogous manner. Positively stained cells are sorted as single cells into 96-well plates, containing Complete Medium containing 500 μgml^-1 ZeocinTM and are allowed to expand before reanalysis for receptor expression via antibody and ligand binding studies. One clone, 3H3, is selected for membrane preparation. All steps of the protocol are carried out at 4° C. and with pre-cooled reagents. The cell pellet is resuspended in 10 volumes of homogenisation buffer (50 mM N-2-hydroxyethylpiperazine-N'-2-ethanesulfonic acid (HEPES), 1 mM ethylenediamine tetra-acetic acid (EDTA), pH 7.4 with KOH, supplemented with 10^-6 M leupeptin (acetyl-leucyl-leucyl-arginal; Sigma L2884), 25 μgml^-1 bacitracin (Sigma B0125), 1 mM phenylmethylsulfonyl fluoride (PMSF) and 2×10^-6 M pepstain A (Sigma)). The cells are then homogenised by 2×15 sec bursts in a 1 L glass Waring blender, followed by centrifugation at 500 g for 20 min. The supernatant is then spun at 48,000 g for 30 min. The pellet is resuspended in homogenisation buffer (4× the volume of the original cell pellet) by vortexing for 5 sec, followed by homogenisation in a Dounce homogeniser (10-15 strokes). […]
A general note: GTPγS is a poorly hydrolysed GTP analogue; its binding reports G protein activation.

Each structure is given as a SMILES string.

T2 sequence (Q9Y5N1 whole entry, species assumed): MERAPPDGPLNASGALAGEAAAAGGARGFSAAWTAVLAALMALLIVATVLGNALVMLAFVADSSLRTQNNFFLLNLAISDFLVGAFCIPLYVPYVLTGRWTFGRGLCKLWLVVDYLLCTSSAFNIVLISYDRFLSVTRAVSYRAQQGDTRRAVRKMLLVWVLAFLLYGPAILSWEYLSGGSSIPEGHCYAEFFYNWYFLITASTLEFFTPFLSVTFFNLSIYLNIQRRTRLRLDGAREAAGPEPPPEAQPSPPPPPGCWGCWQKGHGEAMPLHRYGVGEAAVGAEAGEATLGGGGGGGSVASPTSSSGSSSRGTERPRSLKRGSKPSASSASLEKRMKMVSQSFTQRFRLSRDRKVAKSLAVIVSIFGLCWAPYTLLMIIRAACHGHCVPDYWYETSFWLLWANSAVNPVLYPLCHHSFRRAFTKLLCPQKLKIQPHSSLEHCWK
T1 sequence (P35367 whole entry): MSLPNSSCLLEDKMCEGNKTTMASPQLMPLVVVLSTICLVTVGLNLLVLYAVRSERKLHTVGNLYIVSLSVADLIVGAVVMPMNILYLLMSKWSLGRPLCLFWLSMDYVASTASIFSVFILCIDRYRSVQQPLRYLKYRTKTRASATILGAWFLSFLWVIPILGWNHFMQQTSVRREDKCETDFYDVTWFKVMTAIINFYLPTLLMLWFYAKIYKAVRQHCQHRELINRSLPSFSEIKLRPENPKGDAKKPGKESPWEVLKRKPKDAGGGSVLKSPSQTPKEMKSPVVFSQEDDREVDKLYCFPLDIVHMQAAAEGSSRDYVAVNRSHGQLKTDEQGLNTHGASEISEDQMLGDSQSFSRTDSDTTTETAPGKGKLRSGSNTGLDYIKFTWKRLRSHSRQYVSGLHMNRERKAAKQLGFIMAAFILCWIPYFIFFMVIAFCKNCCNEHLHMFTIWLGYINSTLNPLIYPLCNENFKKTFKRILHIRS

In the case of `CCCCCc1cc(OC2CCN(CCCC(=O)N(CC)CC)CC2)c2ncccc2c1` [Example 89, N,N-Diethyl-4-{4-[(6-pentyl-8-quinolinyl)oxy]-1-piperidinyl}butanamide], the figures for the Ki at human H1 receptor and at histamine H3 receptor were under 100 nM and over 316 nM, respectively.

With `CCCCc1cc(OC2CCN(CCC3CCN(C(=O)CC)CC3)CC2)c2ncccc2c1` [Example 4, 6-Butyl-8-({1-[2-(1-propanoyl-4-piperidinyl)ethyl]-4-piperidinyl}oxy)quinoline], the Ki at human H1 receptor is under 100 nM; at histamine H3 receptor, over 316 nM.

For `CCCCc1cc(OC2CCN(CC(=O)NCCC)CC2)c2ncccc2c1` [Example 10, 2-{4-[(6-butyl-8-quinolinyl)oxy]-1-piperidinyl}-N-propylacetamide], the Ki at human H1 receptor is over 1000 nM; at histamine H3 receptor, over 316 nM.

Turning to `CCCCc1cc(OC2CCN(CCCNC(=O)C(C)C)CC2)c2ncccc2c1` [Example 68, N-(3-{4-[(6-butyl-8-quinolinyl)oxy]-1-piperidinyl}propyl)-2-methyl propanamide], the Ki at human H1 receptor was under 10 nM; on histamine H3 receptor it was over 316 nM.

As to `CCCCc1cc(OC2CCN(CCNC(=O)CC)CC2)c2ncccc2c1` [Example 73, N-(2-{4-[(6-butyl-8-quinolinyl)oxy]-1-piperidinyl}ethyl) propanamide], the Ki was under 10 nM on human H1 receptor and over 316 nM on histamine H3 receptor.

As for `CCCCCCc1cc(OC2CCN(C[C@H]3CC[C@H](C(=O)N4CCOCC4)CC3)CC2)c2ncccc2c1` [Example 57, 6-hexyl-8-[(1-{[trans-4-(4-morpholinylcarbonyl)cyclohexyl]methyl}-4-piperidinyl)oxy]quinoline], the Ki at human H1 receptor was under 100 nM; on histamine H3 receptor, over 316 nM.

With `CCCCc1cc(OC2CCN(CCCCC(=O)NC(C)(C)C)CC2)c2ncccc2c1` [Example 30, 5-{4-[(6-butyl-8-quinolinyl)oxy]-1-piperidinyl}-N-(1,1-dimethylethyl) pentanamide], the Ki at human H1 receptor was under 100 nM; on histamine H3 receptor, over 3160 nM.

For `CCCCc1cc(OC2CCN(CC3CCCNC3=O)CC2)c2ncccc2c1` (stereo not shown) [Example 5, 3-({4-[(6-butyl-8-quinolinyl)oxy]-1-piperidinyl}methyl)-2-piperidinone], the Ki is under 10 nM on human H1 receptor and over 316 nM on histamine H3 receptor.

On to `CCCCc1cc(OC2CCN(C[C@H]3CC[C@H](C(=O)Nc4ccc(C)cc4)CC3)CC2)c2ncccc2c1` [Example 59, trans-4-({4-[(6-butyl-8-quinolinyl)oxy]-1-piperidinyl}methyl)-N-(4-methylphenyl) cyclohexane carboxamide], for which the Ki at human H1 receptor was under 100 nM; on histamine H3 receptor, over 316 nM.

On to `CCCCc1cc(OC2CCN(CCNC(=O)CCCOC)CC2)c2ncccc2c1` [Example 81, N-(2-{4-[(6-butyl-8-quinolinyl)oxy]-1-piperidinyl}ethyl)-4-(methyloxy) butanamide], for which the Ki at human H1 receptor was under 10 nM; at histamine H3 receptor, over 316 nM.

Turning to `CCCCc1cc(O[C@@H]2CCN(CCC(=O)N(CC)CC)C2)c2ncccc2c1` [Example 35, 3-{(3R)-3-[(6-butyl-8-quinolinyl)oxy]-1-pyrrolidinyl}-N,N-diethylpropanamide], the figures for the Ki on human H1 receptor and on histamine H3 receptor were under 10 nM and over 316 nM, respectively.

As to `CCCCCCc1cc(OC2CCN(C[C@H]3CC[C@H](C(=O)N4CCCC4)CC3)CC2)c2ncccc2c1` [Example 54, 6-hexyl-8-[(1-{[trans-4-(1-pyrrolidinylcarbonyl)cyclohexyl]methyl}-4-piperidinyl)oxy]quinoline], the Ki is under 100 nM on human H1 receptor and over 316 nM on histamine H3 receptor.

In the case of `CCCCCCc1cc(OC2CCN(C[C@H]3CC[C@H](C(=O)N(CC)CC)CC3)CC2)c2ncccc2c1` [Example 53, trans-N,N-diethyl-4-({4-[(6-hexyl-8-quinolinyl)oxy]-1-piperidinyl}methyl) cyclohexane carboxamide], the Ki on human H1 receptor was under 100 nM; on histamine H3 receptor it was over 316 nM.

As to `CCCCc1cc(O[C@@H]2CCN(CCCC(=O)NC(C)(C)C)C2)c2ncccc2c1` [Example 37, 4-{(3R)-3-[(6-butyl-8-quinolinyl)oxy]-1-pyrrolidinyl}-N-(1,1-dimethylethyl) butanamide], the Ki was under 10 nM on human H1 receptor and over 316 nM at histamine H3 receptor.

Consider `CCCCc1cc(OC2CCN(CCCNC(=O)CCOC)CC2)c2ncccc2c1` [Example 82, N-(3-{4-[(6-butyl-8-quinolinyl)oxy]-1-piperidinyl}propyl)-3-(methyloxy) propanamide], for which the Ki on human H1 receptor is under 10 nM; on histamine H3 receptor it was over 316 nM.

Consider `CCCCc1cc(OC2CCN(CCC(=O)NC(C)C)CC2)c2ncccc2c1` [Example 19, 3-{4-[(6-butyl-8-quinolinyl)oxy]-1-piperidinyl}-N-(1-methylethyl) propanamide], for which the Ki at human H1 receptor was under 10 nM; on histamine H3 receptor, over 3160 nM.

For the compound `CCCCc1cc(OC2CCN(CC(=O)N(CC)CC)CC2)c2ncccc2c1` [Example 9, 2-{4-[(6-butyl-8-quinolinyl)oxy]-1-piperidinyl}-N,N-diethylacetamide], the Ki is under 100 nM at human H1 receptor and over 3160 nM at histamine H3 receptor.

In the case of `CCCCc1cc(OC2CCN(CCCCNC(C)=O)CC2)c2ncccc2c1` [Example 79, N-(4-{4-[(6-Butyl-8-quinolinyl)oxy]-1-piperidinyl}butyl)acetamide], the figures for the Ki on human H1 receptor and on histamine H3 receptor were under 10 nM and over 316 nM, respectively.

Regarding `CCCCc1cc(OC2CCN(C[C@H]3CC[C@H](C(=O)NCC(C)(C)C)CC3)CC2)c2ncccc2c1` [Example 46, trans-4-({4-[(6-butyl-8-quinolinyl)oxy]-1-piperidinyl}methyl)-N-(2,2-dimethylpropyl) cyclohexane carboxamide], the results for the Ki on human H1 receptor and on histamine H3 receptor were under 100 nM and over 316 nM, respectively.

As to `CCCCCc1cc(OC2CCN(CCCNC(=O)C(C)(C)C)CC2)c2ncccc2c1` [Example 91, 2,2-Dimethyl-N-(3-{4-[(6-pentyl-8-quinolinyl)oxy]-1-piperidinyl}propyl) propanamide], the Ki on human H1 receptor is under 10 nM; on histamine H3 receptor it was over 316 nM.

The values above are taken from patent US20100222349A1, “QUINOLINE DERIVATIVES USED TO TREAT INFLAMMATORY AND ALLERGIC DISEASES” (Glaxo Group Limited, priority 2007, published 2010).
